Legend:
[1] = Cytotoxicity against human HBE cells assessed as reduction in cell viability measured after 48 hrs by CCK8 assay; assay type: cell-based
BEAS-2B = test: Cytotoxicity against human BEAS-2B cells assessed as reduction in cell viability measured after 48 hrs by CCK8 assay; assay type: cell-based
NCI-H460 = test: Cytotoxicity against human NCI-H460 cells harboring wild type EGFR assessed as reduction in cell viability measured after 48 hrs by CCK8 assay; assay type: functional, cell-based; conditions: NCI-H460, 48 h
A549 = test: Cytotoxicity against human A549 cells harboring wild type EGFR assessed as reduction in cell viability measured after 48 hrs by CCK8 assay; assay type: functional, cell-based; conditions: A549, 48 h
NCI-H1975 = test: Cytotoxicity against human NCI-H1975 cells harboring EGFR L858R/T790M mutant assessed as reduction in cell viability measured after 48 hrs by CCK8 assay; assay type: functional, cell-based; conditions: NCI-H1975, 48 h
HCC827 = test: Cytotoxicity against human HCC827 cells harboring EGFR del E746-A750 mutant assessed as reduction in cell viability measured after 48 hrs by CCK8 assay; assay type: functional, cell-based; conditions: HCC827, 48 h
[2] = molecular target: Epidermal growth factor receptor (Homo sapiens, UniProt P00533); test: Inhibition of wild type EGFR (unknown origin) at 80 nM pretreated with substrate for 10 mins followed by ATP addition measured after 60 mins by mobility shift assay relative to control
[3] = test system: Epidermal growth factor receptor (Homo sapiens), P00533 [L858R,T790M]; test: Inhibition of […] EGFR L858R/T790M mutant (unknown origin) at 2 nM pretreated with substrate for 10 mins followed by ATP addition measured after 60 mins by mobility shift assay relative to control
[4] = test system: Epidermal growth factor receptor (Homo sapiens), P00533 [UNDEFINED MUTATION]; test: Inhibition of […] EGFR Del E746/A750 mutant (unknown origin) at 2 nM pretreated with substrate for 10 mins followed by ATP addition measured after 60 mins by mobility shift assay relative to control
[5] = test system: Epidermal growth factor receptor (Homo sapiens), P00533 [L858R]; test: Inhibition of […] EGFR L858R mutant (unknown origin) at 2 nM pretreated with substrate for 10 mins followed by ATP addition measured after 60 mins by mobility shift assay relative to control
[6] = test system: Epidermal growth factor receptor (Homo sapiens), P00533 [T790M]; test: Inhibition of […] EGFR T790M mutant (unknown origin) at 2 nM pretreated with substrate for 10 mins followed by ATP addition measured after 60 mins by mobility shift assay relative to control
[7] = test system: Epidermal growth factor receptor (Homo sapiens), P00533 [C797S]; test: Inhibition of […] EGFR C797S mutant (unknown origin) at 2 nM pretreated with substrate for 10 mins followed by ATP addition measured after 60 mins by mobility shift assay relative to control
[8] = test system: Epidermal growth factor receptor (Homo sapiens), P00533 [L858R,T790M,C797S]; test: Inhibition of […] EGFR L858R/T790M/C797S mutant (unknown origin) at 2 nM pretreated with substrate for 10 mins followed by ATP addition measured after 60 mins by mobility shift assay relative to control
Epidermal growth factor receptor (Homo sapiens), P00533 [L858R,T790M,C797S], sequence (P00533 whole entry T790M/C797S/L858R): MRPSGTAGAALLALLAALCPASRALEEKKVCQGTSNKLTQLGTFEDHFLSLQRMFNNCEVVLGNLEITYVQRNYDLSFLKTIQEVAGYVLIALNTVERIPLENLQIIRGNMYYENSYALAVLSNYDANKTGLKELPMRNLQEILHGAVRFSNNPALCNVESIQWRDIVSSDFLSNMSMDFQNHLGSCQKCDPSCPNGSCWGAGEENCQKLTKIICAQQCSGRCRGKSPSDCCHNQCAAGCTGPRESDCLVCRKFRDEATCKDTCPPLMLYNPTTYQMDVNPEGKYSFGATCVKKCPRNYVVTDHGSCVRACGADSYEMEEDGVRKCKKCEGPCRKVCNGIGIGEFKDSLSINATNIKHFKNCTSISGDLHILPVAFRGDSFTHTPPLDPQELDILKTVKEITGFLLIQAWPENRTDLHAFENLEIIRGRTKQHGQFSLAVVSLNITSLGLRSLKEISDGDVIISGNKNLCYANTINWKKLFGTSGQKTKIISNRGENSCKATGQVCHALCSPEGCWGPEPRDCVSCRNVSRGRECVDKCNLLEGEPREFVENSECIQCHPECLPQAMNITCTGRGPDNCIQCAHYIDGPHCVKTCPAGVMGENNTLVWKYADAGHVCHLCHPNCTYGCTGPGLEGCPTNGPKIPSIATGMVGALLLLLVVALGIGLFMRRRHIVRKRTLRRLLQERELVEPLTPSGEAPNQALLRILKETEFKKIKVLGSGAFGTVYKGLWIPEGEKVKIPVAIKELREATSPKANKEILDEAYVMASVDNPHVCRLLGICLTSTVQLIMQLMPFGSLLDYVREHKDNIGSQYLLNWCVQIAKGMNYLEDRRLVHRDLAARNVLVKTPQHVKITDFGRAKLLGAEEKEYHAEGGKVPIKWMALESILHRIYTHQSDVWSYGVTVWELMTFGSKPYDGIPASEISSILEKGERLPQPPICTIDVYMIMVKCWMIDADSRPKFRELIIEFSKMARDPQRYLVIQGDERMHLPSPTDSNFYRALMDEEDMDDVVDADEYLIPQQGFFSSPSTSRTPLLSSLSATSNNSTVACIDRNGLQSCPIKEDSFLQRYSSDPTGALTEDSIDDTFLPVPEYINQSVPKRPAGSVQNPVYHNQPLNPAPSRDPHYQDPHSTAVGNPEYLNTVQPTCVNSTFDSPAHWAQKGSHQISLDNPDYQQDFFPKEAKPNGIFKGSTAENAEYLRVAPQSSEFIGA

Epidermal growth factor receptor (Homo sapiens), P00533 [T790M], sequence (P00533 whole entry T790M): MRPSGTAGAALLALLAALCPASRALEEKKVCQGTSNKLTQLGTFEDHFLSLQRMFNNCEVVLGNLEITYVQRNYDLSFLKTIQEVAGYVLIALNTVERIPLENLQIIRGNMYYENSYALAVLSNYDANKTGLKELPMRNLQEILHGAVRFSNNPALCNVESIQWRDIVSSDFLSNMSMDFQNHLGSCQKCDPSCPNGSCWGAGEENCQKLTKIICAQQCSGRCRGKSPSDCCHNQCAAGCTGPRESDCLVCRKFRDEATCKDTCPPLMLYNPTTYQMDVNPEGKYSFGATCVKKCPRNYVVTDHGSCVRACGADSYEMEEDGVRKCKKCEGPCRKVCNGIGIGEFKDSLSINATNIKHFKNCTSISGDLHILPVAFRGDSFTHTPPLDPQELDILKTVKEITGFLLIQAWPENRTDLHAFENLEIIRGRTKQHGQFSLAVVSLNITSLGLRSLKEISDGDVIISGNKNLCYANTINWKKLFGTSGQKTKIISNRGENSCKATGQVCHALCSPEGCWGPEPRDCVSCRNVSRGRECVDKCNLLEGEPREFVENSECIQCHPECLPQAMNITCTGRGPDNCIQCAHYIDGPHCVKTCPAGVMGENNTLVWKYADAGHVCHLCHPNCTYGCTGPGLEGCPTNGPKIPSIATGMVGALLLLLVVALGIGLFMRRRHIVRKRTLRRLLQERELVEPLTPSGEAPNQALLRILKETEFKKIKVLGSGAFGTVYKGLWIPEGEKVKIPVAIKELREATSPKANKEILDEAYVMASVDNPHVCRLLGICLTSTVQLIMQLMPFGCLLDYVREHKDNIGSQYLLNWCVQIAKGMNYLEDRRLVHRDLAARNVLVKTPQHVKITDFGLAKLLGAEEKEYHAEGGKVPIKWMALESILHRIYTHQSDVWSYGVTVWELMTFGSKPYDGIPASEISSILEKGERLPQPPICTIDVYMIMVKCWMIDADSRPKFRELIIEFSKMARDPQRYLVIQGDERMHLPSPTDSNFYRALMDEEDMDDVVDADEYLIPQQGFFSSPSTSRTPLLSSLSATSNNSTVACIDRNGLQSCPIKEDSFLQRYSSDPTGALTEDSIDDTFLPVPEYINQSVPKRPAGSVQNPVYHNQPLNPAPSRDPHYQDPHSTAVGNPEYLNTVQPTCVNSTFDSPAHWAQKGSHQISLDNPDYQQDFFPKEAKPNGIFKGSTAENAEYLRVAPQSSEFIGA
Epidermal growth factor receptor (Homo sapiens), P00533 [L858R,T790M], sequence (P00533 whole entry T790M/L858R, looked up): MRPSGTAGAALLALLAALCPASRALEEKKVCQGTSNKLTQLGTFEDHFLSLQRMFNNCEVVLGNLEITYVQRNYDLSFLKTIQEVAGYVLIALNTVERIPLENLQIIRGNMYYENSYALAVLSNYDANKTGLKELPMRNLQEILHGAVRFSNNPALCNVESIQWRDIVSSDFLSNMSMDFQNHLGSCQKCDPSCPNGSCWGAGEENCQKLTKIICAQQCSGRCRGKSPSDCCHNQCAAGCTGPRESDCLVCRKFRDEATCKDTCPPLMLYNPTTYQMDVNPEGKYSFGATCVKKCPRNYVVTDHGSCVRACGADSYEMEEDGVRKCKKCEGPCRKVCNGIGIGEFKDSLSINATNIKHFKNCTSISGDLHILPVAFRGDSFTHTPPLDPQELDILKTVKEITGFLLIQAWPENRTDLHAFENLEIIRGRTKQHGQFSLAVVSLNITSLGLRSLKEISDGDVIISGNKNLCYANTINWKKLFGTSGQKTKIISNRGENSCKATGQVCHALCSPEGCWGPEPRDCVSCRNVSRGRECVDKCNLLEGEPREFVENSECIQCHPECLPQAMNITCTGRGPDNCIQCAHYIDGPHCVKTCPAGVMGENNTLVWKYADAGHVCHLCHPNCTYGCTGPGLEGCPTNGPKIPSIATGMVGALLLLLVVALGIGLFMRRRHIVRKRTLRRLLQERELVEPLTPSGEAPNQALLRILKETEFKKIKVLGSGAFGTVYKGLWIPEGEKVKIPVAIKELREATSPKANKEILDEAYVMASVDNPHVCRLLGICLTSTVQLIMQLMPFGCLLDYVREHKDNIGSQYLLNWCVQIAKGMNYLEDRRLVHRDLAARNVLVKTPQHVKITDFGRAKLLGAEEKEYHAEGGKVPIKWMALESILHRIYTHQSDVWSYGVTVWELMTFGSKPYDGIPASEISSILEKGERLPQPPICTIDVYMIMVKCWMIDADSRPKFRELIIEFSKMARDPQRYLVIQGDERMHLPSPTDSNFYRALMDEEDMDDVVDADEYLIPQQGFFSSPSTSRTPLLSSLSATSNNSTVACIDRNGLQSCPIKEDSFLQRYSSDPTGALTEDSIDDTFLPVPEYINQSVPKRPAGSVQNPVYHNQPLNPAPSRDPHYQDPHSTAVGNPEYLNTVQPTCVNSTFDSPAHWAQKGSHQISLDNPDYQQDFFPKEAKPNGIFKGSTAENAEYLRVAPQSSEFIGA
Epidermal growth factor receptor (Homo sapiens), P00533 [C797S], sequence (P00533 whole entry C797S): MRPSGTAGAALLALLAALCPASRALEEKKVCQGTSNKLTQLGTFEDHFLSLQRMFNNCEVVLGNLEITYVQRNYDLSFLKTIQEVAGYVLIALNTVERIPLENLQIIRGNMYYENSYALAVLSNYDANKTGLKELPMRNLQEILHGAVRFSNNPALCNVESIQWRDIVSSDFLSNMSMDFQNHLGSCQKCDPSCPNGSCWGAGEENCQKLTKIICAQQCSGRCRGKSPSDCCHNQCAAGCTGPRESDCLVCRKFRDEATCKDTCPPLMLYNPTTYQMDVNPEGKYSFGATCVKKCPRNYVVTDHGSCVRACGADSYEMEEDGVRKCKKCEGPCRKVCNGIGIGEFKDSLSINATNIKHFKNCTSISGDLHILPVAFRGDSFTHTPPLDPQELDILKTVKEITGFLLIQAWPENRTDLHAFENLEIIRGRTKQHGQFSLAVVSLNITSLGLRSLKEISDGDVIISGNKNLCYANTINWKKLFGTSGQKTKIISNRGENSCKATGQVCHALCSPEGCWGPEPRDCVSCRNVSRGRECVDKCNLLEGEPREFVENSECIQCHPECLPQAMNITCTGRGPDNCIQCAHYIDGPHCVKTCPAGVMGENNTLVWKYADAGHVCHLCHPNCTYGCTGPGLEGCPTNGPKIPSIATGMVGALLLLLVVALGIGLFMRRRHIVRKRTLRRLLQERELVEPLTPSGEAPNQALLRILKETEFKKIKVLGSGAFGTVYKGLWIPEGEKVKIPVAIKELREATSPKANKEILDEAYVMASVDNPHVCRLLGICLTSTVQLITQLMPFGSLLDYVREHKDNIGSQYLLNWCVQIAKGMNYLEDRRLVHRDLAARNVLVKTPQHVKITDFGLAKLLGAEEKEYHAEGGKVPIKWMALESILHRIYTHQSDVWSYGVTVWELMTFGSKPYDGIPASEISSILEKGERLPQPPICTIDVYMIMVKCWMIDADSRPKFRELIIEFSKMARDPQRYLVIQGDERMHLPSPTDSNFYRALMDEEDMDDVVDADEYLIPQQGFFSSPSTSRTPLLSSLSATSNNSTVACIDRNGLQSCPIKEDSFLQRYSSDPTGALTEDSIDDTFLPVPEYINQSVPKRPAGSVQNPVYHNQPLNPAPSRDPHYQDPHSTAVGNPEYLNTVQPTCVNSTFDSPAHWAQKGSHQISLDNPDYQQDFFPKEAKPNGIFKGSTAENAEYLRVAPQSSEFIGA

C=CC(=O)Nc1cccc(Oc2nc(Nc3ccc(N4CCN(C)CC4)c(Cl)c3)nc3[nH]ccc23)c1
IC50 [1]: 8.73 µM | IC50 (BEAS-2B): 3.8 µM | IC50 (NCI-H460): 4.86 µM | IC50 (A549): 1.68 µM | IC50 (NCI-H1975): 1.67 µM | IC50 (HCC827): 0.12 µM | inhibition [2]: 86% | inhibition [3]: 92% | inhibition [4]: 44% | inhibition [5]: 41% | inhibition [6]: 98% | inhibition [7]: 4.8% | inhibition [8]: 9.2%

C=CC(=O)Nc1cccc(Oc2nc(Nc3ccc(N4CCN(C)CC4)c(N)c3)nc3c2ccn3COC(=O)C(C)(C)C)c1
IC50 [1]: 9.58 µM | IC50 (BEAS-2B): 9.54 µM | IC50 (NCI-H460): 7.65 µM | IC50 (A549): 10.8 µM | IC50 (NCI-H1975): 42 µM | IC50 (HCC827): 0.33 µM | inhibition [2]: 4.5% | inhibition [3]: 2.4% | inhibition [4]: 11% | inhibition [5]: 9.7% | inhibition [6]: 7.3% | inhibition [7]: 2.2% | inhibition [8]: 3.6%

C=CC(=O)Nc1cccc(Oc2nc(Nc3ccc(N4CCN(C)CC4)c([N+](=O)[O-])c3)nc3c2ccn3COC(=O)C(C)(C)C)c1
IC50 [1]: 3.61 µM | IC50 (BEAS-2B): 5.73 µM | IC50 (NCI-H460): 4.68 µM | IC50 (A549): 3.1 µM | IC50 (NCI-H1975): 4.12 µM | IC50 (HCC827): 0.44 µM | inhibition [2]: 4.7% | inhibition [3]: 3.5% | inhibition [4]: 0.41% | inhibition [5]: 13% | inhibition [6]: 7.9% | inhibition [7]: 6.3% | inhibition [8]: 8.4%

C=CC(=O)Nc1cccc(Oc2nc(Nc3ccc(N4CCN(C)CC4)cc3)nc3[nH]ccc23)c1
IC50 [1]: 28.1 µM | IC50 (BEAS-2B): 23.8 µM | IC50 (NCI-H460): 36 µM | IC50 (A549): 9.92 µM | IC50 (NCI-H1975): 22 µM | IC50 (HCC827): 0.24 µM

C=CC(=O)Nc1cccc(Oc2nc(Nc3ccc(N4CCN(C)CC4)c(OC)c3)nc3[nH]ccc23)c1
IC50 [1]: 12.5 µM | IC50 (BEAS-2B): 9.89 µM | IC50 (NCI-H460): 33.6 µM | IC50 (A549): 20.6 µM | IC50 (NCI-H1975): 22.4 µM | IC50 (HCC827): 0.26 µM | inhibition [2]: 32% | inhibition [3]: 42% | inhibition [4]: 25% | inhibition [5]: 31% | inhibition [6]: 97% | inhibition [7]: 13% | inhibition [8]: 7.8%
